# Laboratory results as given in ChEMBL document CHEMBL5465560, “Selectivity Literature for EUbOPEN Chemogenomic Library” (2024).
# What was measured:
# [1] = target: Phosphatidylinositol 4,5-bisphosphate 3-kinase catalytic subunit alpha isoform (Homo sapiens) (UniProt P42336); assay: (§1) Selectivity interaction (KinomeScan (DiscoverX)) EUB0000229b PIK3CA; details: at 10 µM
# [2] = tested on: Phosphatidylinositol 4,5-bisphosphate 3-kinase catalytic subunit alpha isoform (Homo sapiens), P42336 [C420R]; assay: as §1; details: at 1 µM
# [3] = tested on: Phosphatidylinositol 4,5-bisphosphate 3-kinase catalytic subunit alpha isoform (Homo sapiens), P42336 [E542K]; assay: as §1; details: at 1 µM
# [4] = tested on: Phosphatidylinositol 4,5-bisphosphate 3-kinase catalytic subunit alpha isoform (Homo sapiens), P42336 [E545A]; assay: as §1; details: at 1 µM
# [5] = tested on: Phosphatidylinositol 4,5-bisphosphate 3-kinase catalytic subunit alpha isoform (Homo sapiens), P42336 [E545K]; assay: as §1; details: at 1 µM
# Chain of Phosphatidylinositol 4,5-bisphosphate 3-kinase catalytic subunit alpha isoform (Homo sapiens), P42336 [E545K] (P42336 whole entry E545K, canonical isoform): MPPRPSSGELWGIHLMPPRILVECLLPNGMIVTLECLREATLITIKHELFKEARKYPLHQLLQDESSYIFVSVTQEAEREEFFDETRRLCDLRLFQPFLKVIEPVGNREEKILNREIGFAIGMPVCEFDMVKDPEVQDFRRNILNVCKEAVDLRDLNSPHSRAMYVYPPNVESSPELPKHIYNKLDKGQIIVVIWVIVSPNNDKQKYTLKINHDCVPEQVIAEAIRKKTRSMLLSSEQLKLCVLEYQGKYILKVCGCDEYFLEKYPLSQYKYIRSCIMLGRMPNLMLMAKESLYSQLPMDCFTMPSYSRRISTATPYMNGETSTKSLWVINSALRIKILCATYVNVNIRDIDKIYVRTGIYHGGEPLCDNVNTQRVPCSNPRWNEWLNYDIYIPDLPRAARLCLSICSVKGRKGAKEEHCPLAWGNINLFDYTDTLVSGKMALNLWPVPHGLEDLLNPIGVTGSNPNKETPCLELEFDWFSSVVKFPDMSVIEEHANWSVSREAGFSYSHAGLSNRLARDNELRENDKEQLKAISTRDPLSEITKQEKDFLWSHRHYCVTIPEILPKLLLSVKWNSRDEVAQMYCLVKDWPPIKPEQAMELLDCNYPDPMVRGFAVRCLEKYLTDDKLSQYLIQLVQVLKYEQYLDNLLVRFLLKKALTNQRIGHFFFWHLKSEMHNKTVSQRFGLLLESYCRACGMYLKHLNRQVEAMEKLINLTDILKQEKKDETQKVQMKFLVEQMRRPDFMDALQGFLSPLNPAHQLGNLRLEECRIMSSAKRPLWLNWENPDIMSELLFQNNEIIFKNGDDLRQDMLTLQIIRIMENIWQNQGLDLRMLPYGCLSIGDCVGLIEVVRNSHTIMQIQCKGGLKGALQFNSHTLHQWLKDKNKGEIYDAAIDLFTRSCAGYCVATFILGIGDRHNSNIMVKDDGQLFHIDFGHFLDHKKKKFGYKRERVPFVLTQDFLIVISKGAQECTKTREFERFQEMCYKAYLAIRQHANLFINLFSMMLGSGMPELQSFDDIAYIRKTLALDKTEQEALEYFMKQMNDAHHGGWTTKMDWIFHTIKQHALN
# [6] = tested on: Phosphatidylinositol 4,5-bisphosphate 3-kinase catalytic subunit alpha isoform (Homo sapiens), P42336 [H1047L]; assay: as §1; details: at 1 µM
# [7] = tested on: Phosphatidylinositol 4,5-bisphosphate 3-kinase catalytic subunit alpha isoform (Homo sapiens), P42336 [H1047Y]; assay: as §1; details: at 1 µM
# Chain of Phosphatidylinositol 4,5-bisphosphate 3-kinase catalytic subunit alpha isoform (Homo sapiens), P42336 [H1047Y] (P42336 whole entry H1047Y, canonical isoform): as the sequence (P42336 whole entry E545K, canonical isoform) above, with K545E, H1047Y counted along it
# [8] = tested on: Phosphatidylinositol 4,5-bisphosphate 3-kinase catalytic subunit alpha isoform (Homo sapiens), P42336 [I800L]; assay: as §1; details: at 1 µM
# [9] = tested on: Phosphatidylinositol 4,5-bisphosphate 3-kinase catalytic subunit alpha isoform (Homo sapiens), P42336 [M1043I]; assay: as §1; details: at 1 µM
# [10] = tested on: Phosphatidylinositol 4,5-bisphosphate 3-kinase catalytic subunit alpha isoform (Homo sapiens), P42336 [Q546K]; assay: as §1; details: at 1 µM
# [11] = target: T1, Dual specificity mitogen-activated protein kinase kinase 4 (Homo sapiens) (UniProt P45985); assay: Selectivity interaction (KinomeScan (DiscoverX)) EUB0000595a MAP2K4; details: at 10 µM
# T1 sequence (whole entry): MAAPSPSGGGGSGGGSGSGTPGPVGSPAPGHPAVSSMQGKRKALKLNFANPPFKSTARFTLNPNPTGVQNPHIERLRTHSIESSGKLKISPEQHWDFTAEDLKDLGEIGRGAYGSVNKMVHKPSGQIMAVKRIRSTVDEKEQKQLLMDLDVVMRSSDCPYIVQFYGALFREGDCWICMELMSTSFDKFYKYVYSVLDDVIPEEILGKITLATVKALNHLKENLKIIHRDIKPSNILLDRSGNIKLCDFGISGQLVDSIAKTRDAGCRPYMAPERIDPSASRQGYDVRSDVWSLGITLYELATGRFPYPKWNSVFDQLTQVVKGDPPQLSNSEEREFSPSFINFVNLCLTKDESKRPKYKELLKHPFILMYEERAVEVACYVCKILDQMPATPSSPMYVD
# [12] = target: T2, Serine/threonine-protein kinase D1 (Homo sapiens) (UniProt Q15139); assay: Selectivity interaction (KinomeScan (DiscoverX)) EUB0001079a PRKD1; details: at 1 µM
# T2 sequence (whole entry): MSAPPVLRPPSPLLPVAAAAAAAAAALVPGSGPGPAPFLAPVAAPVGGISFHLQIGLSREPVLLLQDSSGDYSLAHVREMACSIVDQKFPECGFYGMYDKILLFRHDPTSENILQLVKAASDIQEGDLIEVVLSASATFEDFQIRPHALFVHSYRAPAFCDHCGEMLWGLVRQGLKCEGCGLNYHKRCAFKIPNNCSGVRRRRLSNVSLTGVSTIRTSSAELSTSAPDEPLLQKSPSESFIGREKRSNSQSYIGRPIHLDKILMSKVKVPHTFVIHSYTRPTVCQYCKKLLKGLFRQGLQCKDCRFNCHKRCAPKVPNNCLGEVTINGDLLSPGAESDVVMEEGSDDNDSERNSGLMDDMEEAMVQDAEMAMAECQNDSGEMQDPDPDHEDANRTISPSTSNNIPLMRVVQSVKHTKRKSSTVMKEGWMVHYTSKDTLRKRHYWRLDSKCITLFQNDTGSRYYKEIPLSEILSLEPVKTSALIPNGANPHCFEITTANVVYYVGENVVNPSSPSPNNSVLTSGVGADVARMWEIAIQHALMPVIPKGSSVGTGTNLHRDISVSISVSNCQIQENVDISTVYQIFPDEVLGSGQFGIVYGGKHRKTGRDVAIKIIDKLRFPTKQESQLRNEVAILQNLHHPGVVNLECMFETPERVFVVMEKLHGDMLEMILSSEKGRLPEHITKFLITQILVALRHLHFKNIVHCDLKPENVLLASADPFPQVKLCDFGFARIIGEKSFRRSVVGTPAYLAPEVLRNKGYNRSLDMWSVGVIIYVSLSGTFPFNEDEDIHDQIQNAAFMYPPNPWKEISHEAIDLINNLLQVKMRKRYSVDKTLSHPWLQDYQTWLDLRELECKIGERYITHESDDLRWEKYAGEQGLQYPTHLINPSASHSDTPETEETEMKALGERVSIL
# [13] = target: T3, Non-receptor tyrosine-protein kinase TNK1 (Homo sapiens) (UniProt Q13470); assay: Selectivity interaction (KinomeScan (DiscoverX)) EUB0001079a TNK1; details: at 1 µM
# T3 sequence (whole entry): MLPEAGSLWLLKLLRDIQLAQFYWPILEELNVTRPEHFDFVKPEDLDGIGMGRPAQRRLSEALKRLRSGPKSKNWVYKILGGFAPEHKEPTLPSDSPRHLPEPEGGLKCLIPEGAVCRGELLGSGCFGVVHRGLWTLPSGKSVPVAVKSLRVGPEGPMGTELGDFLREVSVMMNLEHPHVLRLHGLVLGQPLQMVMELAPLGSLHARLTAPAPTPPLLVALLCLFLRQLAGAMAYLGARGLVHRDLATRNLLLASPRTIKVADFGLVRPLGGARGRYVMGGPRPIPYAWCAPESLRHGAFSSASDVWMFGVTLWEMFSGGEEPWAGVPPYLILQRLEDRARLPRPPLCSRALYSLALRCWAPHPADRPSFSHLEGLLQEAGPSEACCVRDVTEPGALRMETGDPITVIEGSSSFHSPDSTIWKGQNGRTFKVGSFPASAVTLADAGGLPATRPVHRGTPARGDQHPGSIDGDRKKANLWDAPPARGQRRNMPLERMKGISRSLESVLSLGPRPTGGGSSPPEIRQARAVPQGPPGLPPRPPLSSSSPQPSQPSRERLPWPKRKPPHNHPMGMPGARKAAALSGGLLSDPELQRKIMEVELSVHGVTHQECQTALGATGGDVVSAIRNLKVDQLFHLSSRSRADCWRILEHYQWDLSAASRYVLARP
# [14] = target: Leukocyte tyrosine kinase receptor (Homo sapiens, UniProt P29376); details: at 10 µM
# [15] = target: Mitotic checkpoint serine/threonine-protein kinase BUB1 beta (Homo sapiens) (UniProt O60566); assay: Selectivity interaction (ProQinase) EUB0000171b BUB1B
# Chain of Mitotic checkpoint serine/threonine-protein kinase BUB1 beta (Homo sapiens) (O60566 whole entry): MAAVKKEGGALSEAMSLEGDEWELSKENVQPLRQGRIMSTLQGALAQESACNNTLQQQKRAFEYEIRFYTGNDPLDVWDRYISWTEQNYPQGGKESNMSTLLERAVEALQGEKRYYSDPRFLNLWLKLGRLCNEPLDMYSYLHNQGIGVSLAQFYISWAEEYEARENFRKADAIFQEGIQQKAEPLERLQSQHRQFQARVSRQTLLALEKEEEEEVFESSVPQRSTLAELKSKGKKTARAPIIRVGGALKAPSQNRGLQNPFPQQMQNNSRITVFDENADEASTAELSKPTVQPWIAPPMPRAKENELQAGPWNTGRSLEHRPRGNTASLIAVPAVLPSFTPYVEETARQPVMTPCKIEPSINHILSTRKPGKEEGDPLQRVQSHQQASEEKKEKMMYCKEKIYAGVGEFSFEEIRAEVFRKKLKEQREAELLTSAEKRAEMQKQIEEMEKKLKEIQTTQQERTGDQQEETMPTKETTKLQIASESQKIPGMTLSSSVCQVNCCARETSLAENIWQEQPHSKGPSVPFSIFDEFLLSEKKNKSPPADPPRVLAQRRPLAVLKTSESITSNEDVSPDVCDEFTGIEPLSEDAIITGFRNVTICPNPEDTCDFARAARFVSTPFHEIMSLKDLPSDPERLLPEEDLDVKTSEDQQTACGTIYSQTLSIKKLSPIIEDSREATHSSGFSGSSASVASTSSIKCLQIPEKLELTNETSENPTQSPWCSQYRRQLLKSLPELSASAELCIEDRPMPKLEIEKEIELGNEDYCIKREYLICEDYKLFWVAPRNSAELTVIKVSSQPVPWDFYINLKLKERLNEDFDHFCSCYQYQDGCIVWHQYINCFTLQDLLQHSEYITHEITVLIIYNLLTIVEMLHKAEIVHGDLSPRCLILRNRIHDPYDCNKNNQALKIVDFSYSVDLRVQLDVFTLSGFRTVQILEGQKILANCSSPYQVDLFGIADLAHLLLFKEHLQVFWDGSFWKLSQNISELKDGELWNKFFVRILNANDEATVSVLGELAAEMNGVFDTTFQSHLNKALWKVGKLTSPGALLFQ
# [16] = target: Tyrosine-protein kinase CSK (Homo sapiens) (UniProt P41240); assay: Selectivity interaction (ActivX KiNativ screen (kinase selectivity in THP-1 cell lysates)) EUB0000639a CSK; format: subcellular; details: lysate, at 0.01 µM
# Chain of Tyrosine-protein kinase CSK (Homo sapiens) (P41240 2-450 limits assumed): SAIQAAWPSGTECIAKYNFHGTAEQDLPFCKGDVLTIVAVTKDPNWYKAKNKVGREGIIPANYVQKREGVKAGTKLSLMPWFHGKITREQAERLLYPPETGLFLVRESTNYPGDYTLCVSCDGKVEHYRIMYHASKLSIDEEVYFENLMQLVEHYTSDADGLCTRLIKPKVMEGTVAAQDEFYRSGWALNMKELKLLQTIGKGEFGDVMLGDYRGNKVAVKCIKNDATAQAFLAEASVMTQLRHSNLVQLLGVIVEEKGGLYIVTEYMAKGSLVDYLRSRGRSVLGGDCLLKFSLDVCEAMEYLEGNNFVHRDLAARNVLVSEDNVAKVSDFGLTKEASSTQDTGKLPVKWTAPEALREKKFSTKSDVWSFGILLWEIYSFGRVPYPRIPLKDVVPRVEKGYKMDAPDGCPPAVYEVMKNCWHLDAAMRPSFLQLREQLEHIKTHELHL
# [17] = target: Tyrosine-protein kinase HCK (Homo sapiens) (UniProt P08631); assay: Selectivity interaction (Ambit KINOMEscan and KiNATiv profiling in Jurkat cells) EUB0000090b HCK; format: cell-based; details: at 1 µM
# Chain of Phosphatidylinositol 4,5-bisphosphate 3-kinase catalytic subunit alpha isoform (Homo sapiens) (P42336 whole entry, canonical isoform): as the sequence (P42336 whole entry E545K, canonical isoform) above, with K545E counted along it
smiles,measurement,setting,value
COc1cc(N(C)c2ccnc3ccc(C(F)(F)F)cc23)cc(OC)c1OC,% binding,[1],100%
same,% binding,[2],87%
same,% binding,[3],90%
same,% binding,[4],67%
same,% binding,[5],76%
same,% binding,[6],63%
same,% binding,[7],90%
same,% binding,[8],72%
same,% binding,[9],87%
same,% binding,[10],81%
COCC(=O)NC/C=C/c1ccc2ncnc(Nc3ccc(Oc4ccc(C)nc4)c(C)c3)c2c1 [CP-724714],% of control,[11],95%
Nc1cnc(N2CCc3cc(S(=O)(=O)Nc4c(F)cc(Cl)cc4F)cc(N4CCCC4=O)c32)nc1 [TP-020n],% of control,[12],83%
same,% of control,[13],100%
Cc1cc([C@@H](C)Nc2ccccc2C(=O)O)c2nc(N3CCOCC3)cc(=O)n2c1 [AZD-6482],% of control,[14],95%
C=CC(=O)Nc1cccc(C(=O)Nc2ccc(Nc3cc(-c4[nH]c(SC)nc4C)ccn3)cc2)c1,% of control,[15]; at 1 µM,95%
same,% of control,[15]; at 5 µM,80%
CC[C@@H]1[C@H](F)C(=O)N[C@@H]1COc1nccc2cc(C(N)=O)c(OC)cc12 [ZIMLOVISERTIB],% of inhibition,[16],2.3%
CN(C)C/C=C/C(=O)Nc1ccc(C(=O)N2CCCC(Nc3ncc(Cl)c(-c4c[nH]c5ccccc45)n3)C2)cc1 (stereo not drawn),% of control,[17],83%
